Reference: patent publication US3931204A, “Thieno[3,4-d]pyrimidines” (U.C.B. Societe Anonyme, priority 1974, dated 1976)

Assays:
[1] = tested on: dog anaesthetized with nembutal; experiment: Blood flow in thoracic aorta (cardiac output), vertebral artery (cerebral flow) and femoral artery (musculocutaneous peripheral flow), electromagnetic flow measurement, anaesthetized dog; assay type: in vivo; conditions: 2 mg/kg animal body weight, intravenous; for increase in the femoral flow: femoral artery; for increase in the cardiac flow: thoracic aorta; for increase in the cerebral flow (in words): vertebral artery; for duration of the increase of the cerebral circulation: increase by 30 to 40%
Method: The measurements were carried out by means of periarterial probes according to the principle of electromagnetic flow measurement. The general experimental conditions have already been described in the Literature (D. WELLENS and E. WAUTERS, Arch.Int.Pharmacod.171/1,(1968), 246). The medicament was administered by intravenous route.
The administration of compounds according to the invention, namely the 2-chloro-4-isopropylamino-thieno[3,4-d]pyrimidine monohydrochloride (compound A), the 2-chloro-4-morpholino-thieno[3,4-d]pyrimidine monohydrochloride (compound B), the 2-chloro-4-(3-methyl-morpholino)-thieno[3,4-d]pyrimidine monohydrochloride (compound C), the 2-n-propylamino-4-isopropylamino-thieno[3,4-d]-pyrimidine monomaleate (compound D) and the 2-n-propyl-4-isopropylamino-thieno[3,4-d]pyrimidine mono-maleate (compound E) brought about the following effects under these conditions: […]

[2] = Intravenous lethal dose (LD50) in rat; conditions: in vivo, solvent: A propylene glycol + water, B polyethylene glycol + ethanol, C, F, G water, D glycofurol
Method: (§1) The intravenously administered lethal doses (LD50) were determined in rat and mouse. For compounds A to G mentioned above, the recorded results, expressed in mg of compound per kg of animal body weight, are given in the following Table: […]

[3] = Intravenous lethal dose (LD50) in mouse; conditions: in vivo, solvent: C water, D glycofurol, E polyethylene glycol
Method: as §1

[4] = tested on: rabbit, in morphinic respiratory depression; experiment: Respiratory analeptic action in morphinic respiratory depression; assay type: in vivo; conditions: 2,5 mg of free base/kg animal body weight

SMILES | increase in the femoral flow [1] | increase in the cardiac flow [1] | increase in the cerebral flow (in words) [1] | LD50 [2] [mg/kg] | LD50 [3] [mg/kg] | duration of the increase of the cerebral circulation [1] | respiratory analeptic effect relative to diethylnicotinamide [4]
CC(C)Nc1nc(Cl)nc2cscc12.Cl [A, 2-chloro-4-isopropylamino-thieno[3,4-d]pyrimidine monohydrochloride] | appreciable increase | appreciable increase | appreciable increase | 65 | – | – | –
Cl.Clc1nc(N2CCOCC2)c2cscc2n1 [B, 2-chloro-4-morpholino-thieno[3,4-d]pyrimidine monohydrochloride] | appreciable increase | appreciable increase | appreciable increase | 130 | – | – | –
CC1COCCN1c1nc(Cl)nc2cscc12.Cl (stereo not shown) [C, 2-chloro-4-(3-methyl-morpholino)-thieno[3,4-d]pyrimidine monohydrochloride] | marked increase | appreciable increase | marked increase | 109 | 117 | at least 40 minutes | –
CCCNc1nc(NC(C)C)c2cscc2n1.O=C(O)/C=C\C(=O)O [D, 2-n-propylamino-4-isopropylamino-thieno[3,4-d]-pyrimidine monomaleate] | marked increase | appreciable increase | marked increase | 25.5 | 21 | at least 40 minutes | –
CCCc1nc(NC(C)C)c2cscc2n1.O=C(O)/C=C\C(=O)O [E, 2-n-propyl-4-isopropylamino-thieno[3,4-d]pyrimidine mono-maleate] | appreciable increase | appreciable increase | appreciable increase | – | 23 | – | –
CCOc1nc(NC(C)C)c2cscc2n1.Cl [F, 2-ethoxy-4-isopropylamino-thieno[3,4-d]pyrimidine monohydrochloride] | – | – | – | 49 | – | – | equivalent to that produced by a six times higher dose of diethylnicotinamide
CCCNc1nc(OCC)nc2cscc12.Cl [G, 2-ethoxy-4-n-propylamino-thieno[3,4-d]pyrimidine monohydrochloride] | – | – | – | 42 | – | – | equivalent to that produced by a six times higher dose of diethylnicotinamide
